Values quoted from earlier work as cited in patent publication US20250295646A1, “METHODS OF USE OF T-TYPE CALCIUM CHANNEL MODULATORS” (Praxis Precision Medicines, Inc., priority 2022, published 2025).

Conditions: WO 2020/072773, cited from earlier work

CC(C)c1ccc(CC(=O)N[C@H](C)c2ccc(OCC(F)(F)F)cn2)cc1 [CX-8998]
discontinuation due to intolerability of adverse events (28-day essential tremor study): 17% | discontinuation rate (28-day essential tremor study): 23% | tolerability of doses of 20 and 24 mg: less well tolerated | single doses generally well tolerated (non-titrated): up to 16 mg
